Our source for the IC50 values is patent publication US9540377B2, “2,6,7,8 substituted purines as HDM2 inhibitors” (Merck Sharp & Dohme Corp., priority 2013, dated 2017).

Where two headings read alike, the source gives them in different places.

The IC50 is the concentration at which inhibition is half-maximal. A lower IC50 goes with higher potency.

The target of this test is HDM2 (Homo sapiens (Human), UniProt Q00987). The test is described as follows: FRET assay (FRET IC50 of Tables 1-11). The format is binding.
HDM2, sequence (Q00987 17-125): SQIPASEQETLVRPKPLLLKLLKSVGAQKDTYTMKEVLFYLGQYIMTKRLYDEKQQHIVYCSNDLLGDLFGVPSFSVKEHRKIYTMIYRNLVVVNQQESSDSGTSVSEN

`COc1ccc(C)cc1-c1nc2nc(C(=O)O)nc(N[C@H](C)C3CC3(F)F)c2n1Cc1ccc(C(F)(F)F)cc1` (stereo partly drawn) [Example 7.19, 6-{[(1R)-1-(2,2-difluorocyclopropyl)ethyl]amino}-8-(2-methoxy-5-methylphenyl)-7-[4-(trifluoromethyl)benzyl]-7H-purine-2-carboxylic acid] came in with an IC50 of 72.2 nM. In other words, the double-digit nanomolar range.

`C[C@@H](Nc1nc(C(=O)O)nc2nc(N3CCCCC3Cc3ccccc3)n(Cc3ccc(C(F)(F)F)cc3)c12)C1CCC1` (stereo partly drawn) [Example 9.3, 8-(2-benzylpiperidin-1-yl)-6-{[(1R)-1-cyclobutylethyl]amino}-7-[4-(trifluoromethyl)benzyl]-7H-purine-2-carboxylic acid] yielded a concentration for half-maximal inhibition (IC50) (Table 9) of 20.7 nM. This counts as double-digit nanomolar.
